Source: US20120301895A1, “METHODS OF MODULATING BINDING OF SON OF SEVENLESS TO PHOSPHATIDIC ACID AND IDENTIFYING COMPOUNDS THAT MODULATE SUCH BINDING” (THE RESEARCH FOUNDATION OF STATE UNIVERSITY OF NEW YORK, priority 2007, published 2012)

Experiments:
[1] = test system: Ras; assay: Ras activation pull-down assay in Cos1 cells transfected with HA-tagged Ras and Sos; format: cell-based
Procedure: In FIG. 14A, MDA-MB-231 cells were plated and then placed in media containing 0.5% media 24 hr later. 24 hr later, the cells were treated with either DMSO or honokiol (20 μM) as indicated for 2 hr. At this point the cells were harvested and lysates were prepared and treated with the immobilized Ras binding domain of Raf1 as in FIGS. 12A-C. Ras-GTP bound to the Raf1 binding domain was recovered and subjected to Western blot analysis using the Pan-Ras antibody. Total Ras in the cell lysates and actin levels were also examined by Western blot analysis. In FIG. 14B, MDA-MB-231 cells were plated and 24 hr later were shifted to media containing 0.5% serum. The cells were then treated with EGF (200 ng/ml) for 10 min. The cells were also treated with honokiol (20 μM) prior to the addition of EGF for the times indicated. The levels of GTP-bound Ras, total Ras, and actin were then determined as in FIG. 14A. In FIG. 14C, Cos1 cells were transfected with plasmids expressing HA-tagged Ras (50 ng) and Sos (500 ng) for 24 hours. The cells were placed in serum free media overnight in the presence of increasing concentration of honokiol. Cells were then collected and Ras activation was determined using the pull-down assay as above. Levels of Ras-GTP, Sos, and Ras were determined by Western blot analysis using an antibody that recognized HA. In FIG. 14D, Cos1 cells were tranfected with the plasmid expressing HA-tagged Ras (50 ng) for 24 hours. […] Cells were then stimulated with 100 ng/ml EGF for the indicated times (min) and Ras activation was determined as in FIG. 14A. […] Cells were then stimulated with 100 ng/ml EGF for the indicated times (min) and Ras activation was determined as in FIG. 14A. […]
To further establish that honokiol was suppressing Ras activation, the effect in Cos1 cells was examined where background Ras activation was lower. […] 24 hr later, the cells were then shifted to serum-free conditions in the presence of increasing concentrations of honokiol and the levels of Ras, Sos, and GTP-bound Ras was evaluated. […]

[2] = test system: MDA-MB-231 cells; assay: Cell viability (trypan blue) and PARP cleavage in MDA-MB-231 cells; format: cell-based, human; settings: honokiol 20 μM
Procedure: MDA-MB-231 cells were plated in DMEM with 10% serum for 48 hr then changed to DMEM with either 10% or 0.5% serum overnight as indicated. Honokiol (20 μM) or control ethanol was then added either at the time of changing media (24 hr time point), or 4 hr prior to harvesting (4 hr time point) as indicated. The cells were then examined for cell viability and PARP cleavage as described previously (Chen et al., “Alternative Phospholipase D/mTOR Survival Signal in Human Breast Cancer Cells,” Oncogene 24:672-9 (2005), which is hereby incorporated by reference in its entirety). The Western blot is representative of at least three independent experiments. The error bars for cell viability represent the standard deviation for triplicate samples from a representative experiment repeated three times.
Cell viability was determined by trypan blue exclusion. After various treatments, cells were harvested, washed, and treated with trypan blue at a concentration of 0.4% w/v. After 10 min, trypan blue uptake (dead cells) was determined by counting on a hemocytometer. Apoptosis was evaluated by examination of cleavage of the caspase 3 substrate PARP as described previously (Chen et al., “Alternative Phospholipase D/mTOR Survival Signal in Human Breast Cancer Cells,” Oncogene 24:672-9 (2005), which is hereby incorporated by reference in its entirety).
The effect of honokiol on cell viability and cleavage of the caspase 3 substrate poly-(ADP-ribose) polymerase (“PARP”)—an indicator of apoptotic cell death—was examined in the MDA-MB-231 and 786-0 cells. The effect of honokiol on cell viability and PARP cleavage in 0.5% serum was examined after 4 hr and 24 hr honokiol treatment and in 10% serum after 24 hr honokiol treatment in the MDA-MB-231 cells. […] Importantly, the cells were still viable after 4 hr of honokiol treatment—the time point used in FIGS. 12 and 13 where the effect of honokiol upon PLD activity and on S6K and 4E-BP1 phosphorylation was examined.

C=CCc1ccc(O)c(-c2ccc(O)c(CC=C)c2)c1 [honokiol, Honokiol]
Ras-GTP levels ([1]; Cos1 cells with excess Sos, serum free overnight, at concentrations of 20 μM and higher): strongly suppressed | ability of EGF to increase the level of GTP-bound Ras ([1]; Cos1 cells, endogenous Sos, ectopic Ras, honokiol 50 μM, EGF 100 ng/ml): suppressed | effect on EGF-induced Ras activation when ectopically expressed Sos was introduced ([1]; Cos1 cells, honokiol 50 μM, EGF 100 ng/ml): more pronounced | cell viability ([2]; 4 hr, 0.5% serum): still viable | PARP cleavage ([2]; 24 hr, 0.5% serum): increased | cell viability ([2]; 24 hr, 0.5% serum): reduced | PARP cleavage increased ([2]; 24 hr, 10% serum): not | cell viability reduced ([2]; 24 hr, 10% serum): not
